Read-outs that look alike come from different tables or passages of the source.
What was measured:
[1] = Stability in whole blood, CD-1 mice; format: in vitro ADME; details: CD-1 mice whole blood, 5 μM, 37° C.
Method: (§1) Stabilities of the assay compound in whole blood of CD-1 mice, SD rats, beagle dogs and cynomolgus monkeys were assayed, respectively. On the day of the assay or the day before the assay, fresh whole blood from CD-1 mice, SD rats, beagle dogs, and cynomolgus monkeys was collected using anticoagulant EDTA-K2. Prior to the start of the assay, the whole blood was mixed with PBS in 1:1 (v: v) and the mixture was preheated in a 37° C. water bath for 10 to 20 minutes. 96-well incubation plates were prepared and named T0, T30, T60, […], respectively. In the corresponding incubation plates, including T0, T30, T60 and […] incubation plates, 2 μL of working solutions of the compound or the control compound were mixed with 98 μL of blank whole blood of mice, rats, canines, monkeys and human in duplicate. All samples were incubated in a 37° C. water bath. The final incubation concentration of the compound was 5 μM and the final incubation concentration of the control compound was 2 μM. At the end of incubation for each time point, the corresponding incubation plate was removed and 100 μL of ultrapure water was immediately added to the corresponding sample wells, and mixed well. 800 μL of a solution of 200 ng/mL tolbutamide and labetalol in acetonitrile was added to precipitate the protein. […] 150 μL of supernatant was taken out and analyzed by LC/MS/MS.

[2] = Stability in whole blood, cynomolgus monkeys; format: in vitro ADME; details: 5 μM, 37° C.
Method: as §1

[3] = Protein binding rate in plasma by equilibrium dialysis, SD rats; format: in vitro ADME
Method: (§2) Protein binding rate of the assay compound in plasma of CD-1 mice, SD rats, beagle dogs, cynomolgus monkeys and human was determined by equilibrium dialysis.
(§3) Plasma samples with a compound concentration of 2 μM were prepared using plasma of the above five species, placed in a 96-well equilibrium dialysis device, and dialyzed with phosphate buffer solution at 37±1° C. for 4 hours. Warfarin was used as the control compound in this assay. The concentrations of the assay compound in plasma and dialysis buffer were determined by LC-MS/MS method.

[4] = Metabolic stability in hepatocytes, cynomolgus monkeys; format: in vitro ADME; details: cynomolgus monkey, cryopreserved hepatocytes
Method: (§4) Metabolic stabilities of assay compound in hepatocytes of CD-1 mice, SD rats, beagle dogs, cynomolgus monkeys, and human were assayed, respectively.
(§5) Several 96-well sample precipitation plates were prepared and named T0, T15, T30, T60, T90, T120, T0-MC, T120-MC and blank substrates, respectively. The recovery medium and incubation medium were taken out in advance and placed in a 37° C. water bath for pre-heating. Cryopreserved hepatocytes were removed from the liquid nitrogen tank and immediately immersed in a 37° C. water bath (approximately 90 seconds). After the cryopreserved hepatocytes had thawed and loosened, they were poured into a centrifuge tube containing 40 mL of recovery medium, and the tube was gently inverted to allow the cells to be resuspended in the recovery medium. The cells were centrifuged at 100×g at room temperature for 5 min, and the supernatant was removed. The hepatocytes were resuspended in an appropriate volume of incubation medium, and the cell viability was calculated by Trypan Blue staining method. 198 μL of hepatocyte suspension (0.51×10^6 cells/mL) was added to the preheated incubation plate. For the culture medium control group, 198 μL of hepatocyte-free incubation medium was added to T0-MC and T120-MC incubation plate. All incubation plates were pre-incubated in a 37° C. incubator for 10 minutes. Then 2 μL of working solutions of the assay sample and the control compound were added, respectively, and the mixture was mixed well. The incubation plate was immediately put into the shaker in the incubator, and the reaction was initiated while starting the timer. For each time point of each compound, 2 duplicate samples were prepared. The incubation conditions were 37° C., saturated humidity, and 5% CO2. […] All samples were mixed well and analyzed by LC/MS/MS.

[5] = Metabolic stability in hepatocytes, SD rats; format: in vitro ADME; details: rat, cryopreserved hepatocytes
Method: as §4, §5

[6] = Protein binding rate in plasma by equilibrium dialysis, CD-1 mice; format: in vitro ADME
Method: as §2, §3

[7] = Protein binding rate in plasma by equilibrium dialysis, beagle dogs; format: in vitro ADME; details: 2 μM, equilibrium dialysis 4 hours
Method: as §3, with “Protein binding rate of the assay compound in plasma of CD-1 mice, SD rats, beagle dogs, cynomolgus monkeys and human was determined by equilibrium dialysis. Plasma” for “Plasma”

[8] = Pharmacokinetics by oral administration and intravenous injection in SD rats; format: in vivo; details: for Area under the plasma concentration-time curve, AUCu: AUC0-last × PPB(Unbound %); for Vd: SD, iv, 2 mg/kg; for AUC(0-t): read-out: Area under the plasma concentration-time curve, AUC0-last
Method: • 1) Assay on the pharmacokinetics of the assay compound by oral administration and intravenous injection in SD rats
The assay compound was mixed with 5% o dimethyl sulfoxide/95% o (10% hydroxypropyl-β-cyclodextrin) solution. The mixture was vortexed and sonicated to prepare a 1 mg/mL clear solution, which was filtered through a microporous membrane for later use. Male SD rats aged 7 to 10 weeks were selected, and administered candidate compound solutions intravenously or orally. Whole blood was collected for a certain period of time, and prepared to obtain plasma. Drug concentration was analyzed by LC-MS/MS method, and pharmacokinetic parameters were calculated by Phoenix WinNonlin software (Pharsight, USA).

## C=C(F)C(=O)N1CCN(c2nc(OC[C@@]34CCCN3C[C@H](F)C4)nc3c2CO[C@H](c2c(F)c(N)cc(C)c2C(F)(F)F)C3)C[C@@H]1CC#N [Compound of formula (I)]
[1]
  Detection of assay compound content within 240 min: 117%
[2]
  Detection of assay compound content within 240 min: 77%
[3]; SD rats plasma, 2 μM, equilibrium dialysis 4 hours
  Protein unbound rate (%): 4.8%
[3]; plasma, value used in the SD rat PK table, read-out: Plasma protein unbound rate PPB (Unbound %)
  fraction unbound at 4 h, 2 μM: 0.048
[4]
  half-life at 1 μM: 27 min
[4]; read-out: CLint(hep)
  hepatocyte CLint at 1 μM: 51.3 µL/min/1e6 cells
[4]; read-out: CLint(liver)
  CLint scaled at 1 μM: 185 mL/min/kg
[5]
  half-life at 1 μM: 20.6 min
[5]; read-out: CLint(hep)
  hepatocyte CLint at 1 μM: 67.4 µL/min/1e6 cells
[5]; read-out: CLint(liver)
  CLint scaled at 1 μM: 315 mL/min/kg
[6]; CD-1, plasma, value used in the CD mouse PK table, read-out: Plasma protein unbound rate PPB (Unbound %)
  fraction unbound at 4 h, 2 μM: 0.12
[6]; CD-1 mice plasma, 2 μM, equilibrium dialysis 4 hours
  Protein unbound rate (%): 1.5%
[7]
  Protein unbound rate (%): 3.3%
[8]; intravenous injection, 2.0 mg/kg
  Area under the plasma concentration-time curve, AUCu: 31.3 nM·h
[8]; male, rat, plasma, intravenous injection, 2.0 mg/kg, Vdss/PPB(Unbound %), read-out: Apparent volume of distribution, Vdss, u
  Vd: 221 L/kg
[8]; male, rat, plasma, intravenous injection, 2.0 mg/kg, read-out: Apparent volume of distribution, Vdss
  Vd: 10.6 L/kg
[8]; male, rat, plasma, intravenous injection, 2.0 mg/kg
  AUC(0-t): 0.653 µM·h
[8]; male, rat, plasma, intravenous injection, 2.0 mg/kg, read-out: Clearance rate, CL
  clearance: 71.5 mL/min/kg
[8]; male, rat, plasma, intravenous injection, 2.0 mg/kg, read-out: Half-life time, T1/2 (converted)
  half-life: 114 min
[8]; male, rat, plasma, oral administration, 9.8 mg/kg
  AUC(0-t): 0.995 µM·h
[8]; male, rat, plasma, oral administration, 9.8 mg/kg, read-out: Bioavailability F (%)
  bioavailability: 30.5%
[8]; male, rat, plasma, oral administration, 9.8 mg/kg, read-out: Peak concentration, Cmax
  Cmax: 220 nM
[8]; male, rat, plasma, oral administration, 9.8 mg/kg, read-out: Time-to-peak, Tmax
  Tmax: 1.5 h
[8]; oral administration, 9.8 mg/kg
  Area under the plasma concentration-time curve, AUCu: 47.8 nM·h
[8]; oral administration, 9.8 mg/kg, Cmax × PPB(Unbound %)
  Peak concentration, Cmax, u: 10.6 nM
